Experimental findings from US20070071692A1, “Aerosol powder formulation” (priority 2005, published 2007) are described below.

This data set can be described thus: Particle size of unmilled and jet milled Compound X (optical microscopy, Microtrac, Aerosizer, SEM). It is filed as physicochemical. The source says: In the studies described below the aerosol performance of micronized Compound X with three different grades of lactose made specifically for inhalation in an Spinhaler® is compared. The carriers studied were milled lactose for inhalation (Respitose™ ML003), sieved lactose for inhalation (Respitose SV003) and granulated lactose for inhalation (Respitose LS243). Each carrier was characterized for particle size, flow properties and morphology. Jet milled Compound X, with an average particle size of 2.8 microns was used in the studies. […] Blends were manufactured with 4% w/w drug loading at a scale of 1 g. Capsules were then filled with 25 mg of blend to achieve a 1 mg nominal dose. Each blend was characterized for blend uniformity, dose uniformity and aerodynamic particle size distribution. Granulated lactose produced the weakest drug aerosolization compared to milled and sieved lactose. […] The delivered shot weight was 92% of target with an in-vitro respirable fraction of 26% and an emitted dose of 34%. The formulation is considered appropriate for animal model studies use however optimization of the formulation and the blending characteristics will be pursued following results from the in-vivo animal studies. Three jet milled samples of Compound X observed using X-ray powder diffraction (XRPD) and thermogravimetry (TGA) that the jet milled samples had similar properties to the unmilled lots. The samples retained their crystalline form. By SEM, it was observed that the jet milled drug was smaller in particle size compared to the unmilled drug, while maintaining the needle-like morphology. Drug particle size ranged from ca. 2-25 μm in length and ca. 2 μm in width with agglomerates up to 50 μm in diameter. Only one of the jet milled lots was used for the described studies below.

Regarding `O=C(NC1CC1)c1cn(-c2cccc(C#Cc3ccc[n+]([O-])c3)c2)c2ncccc2c1=O` [Milled API, N-cyclopropyl-1-[3-(1-oxido-3-pyridinylethynyl)phenyl]-1,4-dihydro[1,8]naphthyridin-4-one-3-carboxamide], under “SEM, jet milled”, the “Drug particle size, length” value is given as 2-25 μm; the “Drug particle size, width” value is reported as “ca. 2 μm”; the “agglomerates, diameter” value is reported as “up to 50 μm”. For the same compound, the average particle size (jet milled drug used in the studies) is on record as 2.8 microns.
